Measurements as given in ChEMBL document CHEMBL6153094, “Rationally designed highly amphipathic antimicrobial peptides demonstrating superior bacterial selectivity relative to the corresponding α-helix peptide” (Eur J Med Chem, 2025).
The source made the active and inactive calls. The calls are words filed in the database; no cut-off is given here.

Tests used:
Pseudomonas aeruginosa [1] = assay: Antimicrobial activity against Pseudomonas aeruginosa ATCC 27853 assessed as inhibition of visible bacterial growth incubated for 18 hrs by broth microdilution method; format: functional
Cell membrane [2] = assay: Disruption of outer membrane integrity in Pseudomonas aeruginosa ATCC 27853 assessed as increase in fluorescence intensity at 1 times of MIC measured for 12 mins by NPN uptake assay; format: subcellular
Enterococcus faecalis = assay: Antimicrobial activity against Enterococcus faecalis ATCC 29212 assessed as inhibition of visible bacterial growth incubated for 18 hrs by broth-dilution method; format: functional
Pseudomonas aeruginosa [3] = assay: Bactericidal activity against Pseudomonas aeruginosa ATCC 27853 assessed as bacterial eradication at 2 times of MIC measured within 30 mins by time-kill kinetics assay; format: functional, organism-based
Pseudomonas aeruginosa [4] = assay: Bactericidal activity against Pseudomonas aeruginosa ATCC 27853 assessed as bacterial eradication at 4 times of MIC measured within 30 mins by time-kill kinetics assay; format: functional, organism-based
Staphylococcus aureus [5] = assay: Antibacterial activity against methicillin-resistant Staphylococcus aureus ATCC 33591 infected in male Balb/c mouse model of full thickness skin wound assessed as reduction in number of inflammatory cells in skin at 1 mg/ml pre-infected with bacteria for 1 hrs followed by compound administration at 1,12 and 36 hrs post infection and measured after 10 days by H and E staining based analysis; format: functional, organism-based; details: time 10.0 day
Staphylococcus aureus [6] = assay: Antibacterial activity against Staphylococcus aureus ATCC 25923 assessed as inhibition of bacterial growth at 2 times of MIC incubated for 18 hrs in presence of <2 microg/ml of trypsin by absorbance based assay; format: functional, organism-based
Staphylococcus aureus [7] = assay: Induction of morphological changes in Staphylococcus aureus ATCC 25923 assessed as content leakage at 2 times of MIC incubated for 30 to 120 mins by SEM analysis; format: functional, organism-based; details: time 30-120 min
Cell membrane [8] = assay: Disruption of outer membrane integrity in Pseudomonas aeruginosa ATCC 27853 assessed as increase in fluorescence intensity at 2 times of MIC measured for 12 mins by NPN uptake assay; format: subcellular
Klebsiella pneumoniae = assay: Antimicrobial activity against Klebsiella pneumoniae ATCC 700603 assessed as inhibition of visible bacterial growth incubated for 18 hrs by broth microdilution method; format: functional
Staphylococcus aureus [9] = assay: Antibacterial activity against Staphylococcus aureus ATCC 25923 assessed as inhibition of bacterial growth at 2 times of MIC incubated for 18 hrs in presence of 2000 microg/ml of chymotrypsin by absorbance based assay; format: functional, organism-based
[10] = system: Staphylococcus epidermidis; assay: Antimicrobial activity against Staphylococcus epidermidis ATCC 12228 assessed as inhibition of visible bacterial growth incubated for 18 hrs by broth-dilution method; format: functional
Cell membrane [11] = assay: Induction of inner membrane permeabilization in Escherichia coli ML-35 ATCC 43837 assessed as increase in […] measured for 135 mins by ONPG based analysis; format: subcellular
Staphylococcus aureus [12] = assay: Antibacterial activity against Staphylococcus aureus ATCC 25923 incubated for 18 hrs in presence of MgCl2 by Mueller-Hinton broth based assay; format: functional, organism-based
Staphylococcus aureus [13] = assay: Antibiofilm activity in Staphylococcus aureus ATCC 25923 assessed as inhibition of biofilm formation at 1/2 times of MIC incubated for 24 hrs by crystal violet staining based analysis relative to control; format: functional
Staphylococcus aureus [14] = assay: Bactericidal activity against Staphylococcus aureus ATCC 25923 assessed as bacterial eradication at 4 times of MIC measured within 30 mins by time-kill kinetics assay; format: functional, organism-based
[15] = Toxicity in male Balb/c mouse assessed as mortality at 100.8 mg/kg, ip measured after 7 days relative to control; format: organism-based; details: in vivo, time 7 day
Pseudomonas aeruginosa [16] = assay: Bactericidal activity against Pseudomonas aeruginosa ATCC 27853 assessed as bacterial eradication at 1 times of MIC measured after 60 mins by time-kill kinetics assay; format: functional, organism-based
[17] = Toxicity in male Balb/c mouse assessed as effect on survival at 63.5 mg/kg, ip measured after 7 days; format: organism-based; details: in vivo, 168 h, time 7 day
Staphylococcus aureus [18] = assay: Induction of morphological changes in Staphylococcus aureus ATCC 25923 assessed as cell adhesion at 2 times of MIC incubated for 30 to 120 mins by SEM analysis; format: functional, organism-based; details: time 30-120 min
Cell membrane [19] = assay: Disruption of outer membrane integrity in Pseudomonas aeruginosa ATCC 27853 assessed as increase in fluorescence intensity at 4 times of MIC measured for 12 mins by NPN uptake assay; format: subcellular
Acinetobacter baumannii = assay: Antimicrobial activity against Acinetobacter baumannii ATCC 19606 assessed as inhibition of visible bacterial growth incubated for 18 hrs by broth microdilution method; format: functional
Pseudomonas aeruginosa [20] = assay: Antibacterial activity against Pseudomonas aeruginosa ATCC 27853 assessed as fold change in MIC incubated for 18 hrs in presence of NaCl by Mueller-Hinton broth based assay; format: functional
Staphylococcus aureus [21] = assay: Induction of morphological changes in Staphylococcus aureus ATCC 25923 assessed as cellular fragmentation at 2 times of MIC incubated for 30 to 120 mins by SEM analysis; format: functional, organism-based; details: time 30-120 min
Pseudomonas aeruginosa [22] = assay: Antibiofilm activity in Pseudomonas aeruginosa ATCC 27853 assessed as inhibition of biofilm formation at 1/2 times of MIC incubated for 24 hrs by crystal violet staining based analysis; format: functional, organism-based
Pseudomonas aeruginosa [23] = assay: Antibacterial activity against Pseudomonas aeruginosa ATCC 27853 incubated for 18 hrs in presence of 10% serum by broth microdilution method; format: functional, organism-based
Staphylococcus aureus [24] = assay: Antibiofilm activity in Staphylococcus aureus ATCC 25923 assessed as inhibition of biofilm formation at 2 times of MIC incubated for 24 hrs by crystal violet staining based analysis relative to control; format: functional
DNA = assay: Binding affinity to Pseudomonas aeruginosa ATCC 27853 DNA at 8 times of MIC measured after 30 mins by agarose gel electrophoresis; format: nucleic-acid assay
Staphylococcus aureus [25] = assay: Induction of morphological changes in Staphylococcus aureus ATCC 25923 assessed as membrane disruption at 2 times of MIC incubated for 30 to 120 mins by SEM analysis; format: functional, organism-based; details: time 30-120 min
Pseudomonas aeruginosa [26] = assay: Resistance fold, ratio of MIC for Pseudomonas aeruginosa ATCC 27853 measured after 20 passages in presence of gentamicin to MIC for Pseudomonas aeruginosa ATCC 27853 measured immediately in presence of gentamicin; format: functional
Pseudomonas aeruginosa [27] = assay: Induction of morphological changes in Pseudomonas aeruginosa ATCC 27853 assessed as content leakage at 2 times of MIC incubated for 30 to 120 mins by SEM analysis; format: functional, organism-based; details: time 30-120 min
Pseudomonas aeruginosa [28] = assay: Resistance fold, ratio of MIC for Pseudomonas aeruginosa ATCC 27853 measured after 20 passages to MIC for Pseudomonas aeruginosa ATCC 27853 measured immediately; format: functional
Staphylococcus aureus [29] = assay: Antimicrobial activity against gentamicin-resistant Staphylococcus aureus ATCC 25923 assessed as inhibition of visible bacterial growth incubated for 18 hrs by broth-dilution method; format: functional
Pseudomonas aeruginosa [30] = assay: Antimicrobial activity against multi-drug resistant Pseudomonas aeruginosa clinical isolate 119 assessed as concentration required to eliminate 90% bacteria incubated for 18 hrs by broth-microdilution method; format: functional
Staphylococcus aureus [31] = assay: Induction of morphological changes in Staphylococcus aureus ATCC 25923 assessed as blister formation at 2 times of MIC incubated for 30 to 120 mins by SEM analysis; format: functional, organism-based; details: time 30-120 min
Pseudomonas aeruginosa [32] = assay: Antibacterial activity against Pseudomonas aeruginosa ATCC 27853 incubated for 18 hrs in presence of FeCl3 by Mueller-Hinton broth based assay; format: functional, organism-based
[33] = Toxicity in male Balb/c mouse assessed as animal death at 127 mg/kg, ip measured within 2 days; format: organism-based; details: in vivo, 48 h, time < 2 day

With H-RRWFRRWRRWFR-NH2 the MIC (Pseudomonas aeruginosa [1]) was 2 µM, the Activity (Cell membrane [2]) was “Active” and the MIC (Enterococcus faecalis) was 8 µM. The Activity (Pseudomonas aeruginosa [3]) was “Active”, the Activity (Pseudomonas aeruginosa [4]) was “Active” and the Activity (Staphylococcus aureus [5]) was “Active”. For the same substance, the Activity (Staphylococcus aureus [6]) was “Active”, the Activity (Staphylococcus aureus [7]) was “Active” and the Activity (Cell membrane [8]) was “Active”. For the same substance, the MIC (Klebsiella pneumoniae) was 4 µM, the Activity (Staphylococcus aureus [9]) was “Not active; Entire Loss Of Activity Observed” and the MIC [10] was 1 µM. For the same substance, the Activity (Cell membrane [11]) was “Active; Lower Concentration Of Compound Is Sufficient To Disrupt Inner Membrane”, the Activity (Staphylococcus aureus [12]) was “Active” and the “inhibition (INH)” value (Staphylococcus aureus [13]) was 35%. For the same substance, the Activity (Staphylococcus aureus [14]) was “Active”, the mortality at 168 h [15] was 75% and the Activity (Pseudomonas aeruginosa [16]) was “Active”. The Activity [17] was “Non-toxic”, the Activity (Staphylococcus aureus [18]) was “Active” and the Activity (Cell membrane [19]) was “Active”. The MIC (Acinetobacter baumannii) was 8 µM, the “fold change (FC)” value (Pseudomonas aeruginosa [20]) was 2 and the Activity (Staphylococcus aureus [21]) was “Active”. The Activity (Pseudomonas aeruginosa [22]) was “inactive”, the Activity (Pseudomonas aeruginosa [23]) was “inactive” and the “inhibition (INH)” value (Staphylococcus aureus [24]) was roughly 75%. The Activity (DNA) was “Active”, the Activity (Staphylococcus aureus [25]) was “Active” and the “fold change (FC)” value (Pseudomonas aeruginosa [26]) was “<=2”. The Activity (Pseudomonas aeruginosa [27]) was “Active”, the “fold change (FC)” value (Pseudomonas aeruginosa [28]) was “<=2” and the MIC (Staphylococcus aureus [29]) was 4 µM. The EC90 (Pseudomonas aeruginosa [30]) was 0.566 µM, the Activity (Staphylococcus aureus [31]) was “Active” and the Activity (Pseudomonas aeruginosa [32]) was “Active”. For the same substance, the Activity [33] was “Toxic”.
